± gives the standard deviation of the averaged measurements.
Key:
Assay in all cases: LOEC (log10 uM (lowest observed effect concentration))
[1] = compound: C=CC(=O)OCC(F)(F)C(F)(F)C(F)(F)C(F)(F)COC(=O)C=C [1H,1H,6H,6H-Perfluorohexane-1,6-diol diacrylate]
Procedure: (§1)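 BioMAP Diversity Plus panel in human primary cell co-cultures, 4 concentrations in duplicate blinded samples. Responses are log10 fold change versus DMSO control, processed with tcpl v2.1.0. A hit is called when responses at any concentration exceed the cutoff (the larger of 3*bmad or log10(1.2)); the lowest observed effect concentration (modl_ga, log10 uM) is reported for hits.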

[2] = compound: FC(F)(I)C(F)(F)C(F)(F)C(F)(F)C(F)(F)C(F)(F)I [1,6-Diiodoperfluorohexane]
Procedure: as §1

Perfluoropinacol = compound: OC(C(F)(F)F)(C(F)(F)F)C(O)(C(F)(F)F)C(F)(F)F [Perfluoropinacol]
Procedure: as §1

[3] = compound: OCC(F)(F)C(F)(F)C(F)(F)C(F)(F)C(F)(F)C(F)(F)C(F)(F)C(F)(F)CO [1H,1H,10H,10H-Perfluorodecane-1,10-diol]
Procedure: as §1

[4] = compound: OCCC(F)(F)C(F)(F)C(F)(F)C(F)(F)C(F)(F)C(F)(F)C(F)(F)C(F)(F)F [8:2 Fluorotelomer alcohol]
Procedure: as §1

[5] = compound: OCCCC(F)(F)C(F)(F)C(F)(F)C(F)(F)C(F)(F)C(F)(F)C(F)(F)C(F)(F)F [3-(Perfluorooctyl)propanol]
Procedure: as §1

[6] = compound: OCC(F)(F)C(F)(F)C(F)(F)C(F)(F)C(F)(F)C(F)(F)C(F)(F)C(F)(F)C(F)(F)C(F)(F)C(F)(F)F [11:1 Fluorotelomer alcohol]
Procedure: as §1

[7] = compound: C=CC(=O)OCC(F)(F)C(F)(F)C(F)(F)C(F)(F)C(F)(F)C(F)(F)C(F)(F)C(F)F [1H,1H,9H-Perfluorononyl acrylate]
Procedure: as §1

[8] = compound: O=C(CC(=O)C(F)(F)C(F)(F)C(F)(F)F)c1cccs1 [(Perfluorobutyryl)-2-thenoylmethane]
Procedure: as §1

[9] = compound: OCC(F)(F)C(F)(F)C(F)(F)C(F)(F)C(F)(F)C(F)(F)F [6:1 Fluorotelomer alcohol]
Procedure: as §1

[10] = compound: Cc1ccc(S(=O)(=O)OCC(F)(F)C(F)(F)C(F)(F)C(F)(F)C(F)(F)C(F)F)cc1 [1H,1H,7H-Perfluoroheptyl 4-methylbenzenesulfonate]
Procedure: as §1

Perfluorooctanoic acid = compound: O=C(O)C(F)(F)C(F)(F)C(F)(F)C(F)(F)C(F)(F)C(F)(F)C(F)(F)F [Perfluorooctanoic acid]
Procedure: as §1

[11] = compound: FC(F)(F)C(F)(F)C(F)(F)C(F)(F)CCI [1H,1H,2H,2H-Perfluorohexyl iodide]
Procedure: as §1

Test System	LOEC (log10 uM) [1]	LOEC (log10 uM) [2]	LOEC (log10 uM) (Perfluoropinacol)	LOEC (log10 uM) [3]	LOEC (log10 uM) [4]	LOEC (log10 uM) [5]	LOEC (log10 uM) [6]	LOEC (log10 uM) [7]	LOEC (log10 uM) [8]	LOEC (log10 uM) [9]	LOEC (log10 uM) [10]	LOEC (log10 uM) (Perfluorooctanoic acid)	LOEC (log10 uM) [11]
hDFCGF PAI1 down	1.3	0.845	1.78	1.78	1.3	0.845							
hDFCGF CollagenI up							-1.22						
CASM3C VCAM1 down	0.845	1.3	1.78	1.78	1.07 ± 0.32	1.07 ± 0.32		1.07 ± 0.32	1.54 ± 0.34				
CASM3C Proliferation down	1.3	0.845	1.3	1.78	1.3	1.3			0.801 ± 0.71	1.78			
BF4T ICAM1 down	1.3	1.07 ± 0.32		1.3	1.78	1.3			1.78				
BE3C MIG down	1.78	1.78	1.78	1.78	1.54 ± 0.34	1.78			1.3	1.78			
IMphg MCP1 down	1.31 ± 0.66	1.3	1.3	1.78	1.78	1.3			1.3				
4H Pselectin up											1.78		
3C Thrombomodulin down						1.78		1.54 ± 0.34					
3C IL8 up												1.78	
LPS IL8 up												1.78	
hDFCGF MCP1 down	0.845	0.845		1.54 ± 0.34	1.3	0.845			1.3		1.07 ± 0.32		
BT xTNFa down	0.301	1.3	1.78	1.78	1.54 ± 0.34	1.3		1.3	1.3	1.78			
BF4T PAI1 down		1.07 ± 0.32	1.3	1.3	1.78	1.3			1.3				
BT Bcell Proliferation up												1.78	
4H Eotaxin3 down	1.3	1.3	1.3		1.54 ± 0.34	1.3			1.3				1.78
IMphg SRB down		1.3	1.3	1.78	1.78	1.54 ± 0.34			1.3				
3C Proliferation down	0.573 ± 0.39	1.3	0.845	1.04 ± 1	1.3	0.845	-0.96 ± 0.37	1.3	0.845	1.78			

Test System	LOEC (log10 uM) [1]	LOEC (log10 uM) [2]	LOEC (log10 uM) (Perfluoropinacol)	LOEC (log10 uM) [3]	LOEC (log10 uM) [4]	LOEC (log10 uM) [5]	LOEC (log10 uM) [6]	LOEC (log10 uM) [7]	LOEC (log10 uM) [8]	LOEC (log10 uM) [9]	LOEC (log10 uM) [10]	LOEC (log10 uM) (Perfluorooctanoic acid)	LOEC (log10 uM) [11]
hDFCGF Proliferation down	0.301	0.301	0.845	1.54 ± 0.34	0.845	0.845		1.3	0.845	1.78			
BT xIL17F down	0.573 ± 0.39	1.54 ± 0.34	1.54 ± 0.34	1.78	1.78	1.3		1.3	1.3	1.78			
BF4T MCP1 down	1.3	0.845	1.78	1.07 ± 0.32	1.3	1.3			1.07 ± 0.32		1.3		
BT PBMCCytotoxicity up												1.78	
BE3C IL8 down	1.3	1.78	1.3	1.54 ± 0.34	1.3	1.3	-0.222		1.78				
IMphg ESelectin up							0.0396 ± 0.37						
IMphg SRB.Mphg down		1.3	1.78	1.54 ± 0.34	1.78	1.07 ± 0.32	-0.222		1.78				
BE3C HLADR down	1.3	1.54 ± 0.34	1.78	1.3	1.3	1.78	-0.46 ± 0.34		1.3				
SAg SRB down	1.3	1.78	1.3		1.3	1.3			1.3		1.78		
BE3C uPAR down	1.78	1.78	1.3	1.78	1.54 ± 0.34	1.78			1.78				
hDFCGF MCSF down	0.573 ± 0.39	0.845	1.3	1.78	1.3	0.845		1.54 ± 0.34		1.78			
BE3C ICAM1 down	1.54 ± 0.34	1.78		1.78	1.54 ± 0.34	1.78			1.3				
BF4T MMP9 down	1.54 ± 0.34	1.07 ± 0.32		1.78	1.3	1.3			1.3				
LPS PGE2 up			1.3				-0.722 ± 0.71						
BT xIL6 down	0.845	1.78		1.78	1.78	1.54 ± 0.34		1.54 ± 0.34	1.54 ± 0.34				
MyoF ACTA1 down	0.845	0.573 ± 0.39	1.3	1.78	1.3	1.07 ± 0.32		1.78					
IMphg VCAM1 down	1.3	1.3	1.54 ± 0.34	1.78	1.78	1.3			1.54 ± 0.34				
